Experimental data as given in BindingDB's records for patent US11897867 (Bayer Aktiengesellschaft, 2024).

How the values were obtained:
[1] = biological target: cGMP-inhibited 3',5'-cyclic phosphodiesterase 3A (Homo sapiens, UniProt Q14432); experiment: PDE3A Enzyme Inhibition
Procedure: (§1) The commercially available 3H-cAMP Scintillation Proximity Assay (SPA, Perkin Elmer) system was used for enzyme inhibition studies. For the determination of the in vitro effect of test substances on the PDE3A reactions 2 μl of the respective test compound solution in DMSO (serial dilutions) were is placed in wells of microtiter plates (Isoplate-96/200W; Perkin Elmer). 50 μl of a dilution of PDE3A cell extract from Sf9 cells overexpressing human full length PDE3A (SB Drug Discovery, UK) in buffer A (50 mM Tris/HCl pH 7.5, 8.3 mM MgCl2, 1.7 mM EDTA, 0.2% BSA) was added. The dilution of the PDE3A cell extract was chosen such that the reaction kinetics was linear and less than 70% of the substrate was consumed (typical dilution 1:5000). The reaction was started by addition of 50 μl (0.025 μCi) of 1:2000 in buffer A w/o BSA diluted substrate [8-3H] adenosine 3′,5′-cyclic phosphate (1 μCi/μl; Perkin Elmer). After incubation at room temperature for 60 min, the reaction was stopped by addition of 25 μl of a suspension containing 18 mg/ml yttrium scintillation proximity beads (Perkin Elmer) in water. The microtiter plates were sealed and measured in a Microbeta scintillation counter (PerkinElmer Wallac). IC50 values were determined from sigmoidal curves by plotting percentage PDE3A activity vs log compound concentration.

[2] = biological target: cGMP-inhibited 3',5'-cyclic phosphodiesterase 3B (Homo sapiens, UniProt Q13370); experiment: PDE3B Enzyme Inhibition
cGMP-inhibited 3',5'-cyclic phosphodiesterase 3B, sequence (Q13370 whole entry): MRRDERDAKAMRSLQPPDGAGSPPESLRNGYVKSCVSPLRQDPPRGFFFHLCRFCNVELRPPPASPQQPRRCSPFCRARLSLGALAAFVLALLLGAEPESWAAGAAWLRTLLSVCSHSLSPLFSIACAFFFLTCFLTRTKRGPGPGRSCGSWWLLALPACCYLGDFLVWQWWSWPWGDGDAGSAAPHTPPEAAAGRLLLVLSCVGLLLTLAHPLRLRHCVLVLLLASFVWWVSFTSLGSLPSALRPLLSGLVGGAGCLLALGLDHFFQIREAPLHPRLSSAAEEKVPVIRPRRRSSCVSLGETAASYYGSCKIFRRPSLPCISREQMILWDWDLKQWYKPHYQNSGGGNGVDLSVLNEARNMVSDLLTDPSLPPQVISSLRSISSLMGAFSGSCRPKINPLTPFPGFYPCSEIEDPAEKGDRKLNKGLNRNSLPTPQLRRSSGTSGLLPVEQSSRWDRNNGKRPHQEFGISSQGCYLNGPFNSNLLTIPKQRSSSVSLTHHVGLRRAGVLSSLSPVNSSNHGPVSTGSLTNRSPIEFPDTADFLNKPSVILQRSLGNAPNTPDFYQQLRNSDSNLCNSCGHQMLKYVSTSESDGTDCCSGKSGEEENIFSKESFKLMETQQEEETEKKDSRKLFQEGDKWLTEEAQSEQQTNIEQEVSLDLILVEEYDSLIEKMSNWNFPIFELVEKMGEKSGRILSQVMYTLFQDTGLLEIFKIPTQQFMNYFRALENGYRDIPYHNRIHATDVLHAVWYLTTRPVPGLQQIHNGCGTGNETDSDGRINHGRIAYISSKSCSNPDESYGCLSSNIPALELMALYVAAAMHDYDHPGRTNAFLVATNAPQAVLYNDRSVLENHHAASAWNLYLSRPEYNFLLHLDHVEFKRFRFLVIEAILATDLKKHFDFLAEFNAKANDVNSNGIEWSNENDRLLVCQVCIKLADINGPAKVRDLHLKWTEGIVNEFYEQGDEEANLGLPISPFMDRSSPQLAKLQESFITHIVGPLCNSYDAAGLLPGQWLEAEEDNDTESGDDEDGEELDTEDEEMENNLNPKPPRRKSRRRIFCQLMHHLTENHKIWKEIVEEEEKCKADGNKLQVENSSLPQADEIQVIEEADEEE
Procedure: as §1, with “PDE3B” for “PDE3A”, “were” for “were is”, “1:6000).” for “1:5000).”

cGMP-inhibited 3',5'-cyclic phosphodiesterase 3A, sequence (Q14432 whole entry): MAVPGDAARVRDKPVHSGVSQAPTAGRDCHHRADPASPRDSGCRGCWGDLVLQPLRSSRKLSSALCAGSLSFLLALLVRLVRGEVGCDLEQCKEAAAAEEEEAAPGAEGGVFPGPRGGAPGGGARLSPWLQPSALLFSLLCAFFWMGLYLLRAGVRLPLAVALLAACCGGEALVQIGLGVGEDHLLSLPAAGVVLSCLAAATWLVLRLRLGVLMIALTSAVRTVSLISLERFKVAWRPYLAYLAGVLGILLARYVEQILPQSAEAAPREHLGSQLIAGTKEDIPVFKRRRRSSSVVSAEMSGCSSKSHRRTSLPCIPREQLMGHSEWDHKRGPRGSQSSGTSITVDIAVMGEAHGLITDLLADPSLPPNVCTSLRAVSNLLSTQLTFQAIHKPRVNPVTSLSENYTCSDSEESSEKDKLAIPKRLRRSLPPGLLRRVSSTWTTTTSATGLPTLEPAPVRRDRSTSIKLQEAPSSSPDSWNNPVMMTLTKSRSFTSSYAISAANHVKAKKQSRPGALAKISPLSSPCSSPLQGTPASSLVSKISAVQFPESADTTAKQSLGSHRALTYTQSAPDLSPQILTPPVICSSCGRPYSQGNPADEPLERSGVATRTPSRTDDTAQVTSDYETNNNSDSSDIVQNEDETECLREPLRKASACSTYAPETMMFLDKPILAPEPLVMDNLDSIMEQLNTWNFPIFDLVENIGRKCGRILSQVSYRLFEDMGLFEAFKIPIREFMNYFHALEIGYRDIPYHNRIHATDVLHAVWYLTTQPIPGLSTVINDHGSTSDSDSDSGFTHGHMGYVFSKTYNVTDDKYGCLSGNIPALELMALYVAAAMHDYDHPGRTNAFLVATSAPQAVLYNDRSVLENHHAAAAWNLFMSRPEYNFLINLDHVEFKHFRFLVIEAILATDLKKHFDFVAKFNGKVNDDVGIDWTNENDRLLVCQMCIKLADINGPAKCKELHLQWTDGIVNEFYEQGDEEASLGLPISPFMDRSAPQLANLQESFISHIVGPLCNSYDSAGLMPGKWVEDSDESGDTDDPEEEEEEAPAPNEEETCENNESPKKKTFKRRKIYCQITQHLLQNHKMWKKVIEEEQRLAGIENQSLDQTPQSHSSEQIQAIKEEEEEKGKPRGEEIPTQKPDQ

IC50 [2] [µM] | SMILES | IC50 [1] [µM]
0.11 | O=C1CCC(c2ccc(-c3ccccc3C(F)(F)F)c(F)c2)=NN1 [US11897867, Example 61] | 0.44
 | O=C1CCC(c2ccc(N3CCOCC3)cc2)=NN1 [US11897867, Example 123] | > 1
